Measurements: paper PMC4255673 (Analytical Chemistry, 2014)
“Also recorded” adds a separate entry of the source. Bridges are numbered along the chain shown (N, C = ends).

Tests used:
[1] = biological target: KDM4C; conditions: cited from earlier work; for inhibition constants: TR-FRET demethylase assay; for apparent increase in activity of second generation peptides over initial leads: vs initial peptide leads
[2] = system: KDM4C; conditions: cell-based assay; cited from earlier work
[3] = system: KDM4C; experiment: HDX-MS of KDM4C ± peptide; type: binding
[4] = biological target: KDM4C; experiment: In vitro TR-FRET demethylase assay / KDM4C inhibition; type: biochemical; conditions: nonbinding control peptide; assay not described

KDM4C inhibition (control peptide) [4] | Substance | inhibition constants [1] | apparent increase in activity of second generation peptides over initial leads [1] | inhibitory activity in cells [2] | isotopic distribution / EX1 kinetics in site D (331–344) ([3]; KDM4C 331–344, HDX time course, bimodal fit with HX-Express, peptide 160 μM) | HDX of helix 359–370 ([3]; KDM4C 359–370, Figure S1 / data not shown)
– | H-ACYTRNMNQC-NH2 (also: sidechain bridge or staple (positions not given here)) [Peptide 2] | in the high μM range | 10 fold | none of the peptides showed any inhibitory activity | confirmed the occurrence of EX1 kinetics | the perturbation in HDX along site 359–370 was only significant after 10 min; also recorded: Helix 359–370 shows reduced HDX (significant only after 10 min; see Figure S1, Supporting Information) but no EX1 exchange kinetics
noninhibitory | H-ACKWMDDGYCGGG-NH2 (disulfide 2-10 (inferred)) [Peptide 4] | – | – | – | – | –
– | H-CKWMADGYC-NH2 (disulfide 1-9 (inferred)) [Peptide 3] | in the high μM range | 10 fold | none of the peptides showed any inhibitory activity | – | –
